Assay results: article PMC2962730 (Journal of neurochemistry, 2010)
Where a chain is given by its changes, count along the chain named.

What was measured:
[1] = molecular target: T1, hVAChT W331A (Homo sapiens, UniProt Q16572, W331A); experiment: [3H]ACh transport; type: biochemical
T1 sequence (Q16572 1-532 W331A): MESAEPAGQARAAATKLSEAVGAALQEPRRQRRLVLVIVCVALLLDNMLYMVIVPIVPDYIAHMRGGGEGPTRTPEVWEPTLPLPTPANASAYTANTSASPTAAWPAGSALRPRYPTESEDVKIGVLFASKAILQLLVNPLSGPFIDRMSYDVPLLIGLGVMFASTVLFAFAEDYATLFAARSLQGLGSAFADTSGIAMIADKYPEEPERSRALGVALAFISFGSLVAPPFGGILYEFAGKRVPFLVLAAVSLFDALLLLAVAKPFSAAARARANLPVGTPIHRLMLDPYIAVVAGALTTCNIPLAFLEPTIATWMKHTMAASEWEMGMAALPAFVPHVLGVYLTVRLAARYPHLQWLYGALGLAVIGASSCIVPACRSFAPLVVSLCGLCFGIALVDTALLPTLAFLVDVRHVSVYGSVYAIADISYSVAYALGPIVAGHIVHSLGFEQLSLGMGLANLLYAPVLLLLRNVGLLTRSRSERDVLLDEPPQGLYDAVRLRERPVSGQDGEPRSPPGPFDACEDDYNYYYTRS

[2] = molecular target: T2, hVAChT Y60W (Homo sapiens, UniProt Q16572, Y60W); experiment: [3H]ACh transport; type: biochemical
T2 sequence (Q16572 1-532 Y60W): T1 sequence (Q16572 1-532 W331A) with Y60W, A331W

[3] = molecular target: T2, hVAChT Y60W; experiment: ACh equilibrium binding by competition against [3H]vesamicol
[4] = molecular target: T3, hVAChT W331L (Homo sapiens, UniProt Q16572, W331L); experiment: as above
T3 sequence (Q16572 1-532 W331L): T1 sequence (Q16572 1-532 W331A) with A331L

[5] = molecular target: T4, hVAChT C388A (Homo sapiens, UniProt Q16572, C388A); experiment: as above
T4 sequence (Q16572 1-532 C388A): T1 sequence (Q16572 1-532 W331A) with A331W, C388A

[6] = test system: rat VAChT (rVAChT) W331 mutants; conditions: mutations of W331 in rVAChT; ref Ojeda et al. 2004; cited from earlier work
[7] = test system: VAChT C391Y; conditions: ref Zhu et al. (2001); cited from earlier work

Row | SMILES | [3H]ACh transport [1] | Vmax/Bmax, ACh transport normalized to Bmax ([2]; pH 7.4) [min⁻¹] | Km ([2]; read-out: KM, Michaelis-Menten constant for ACh transport, pH 7.4) [µM] | Kd [3] [mM] | tighter binding of ACh than by wild-type ([3]; Y60W hVAChT vs wild-type) [fold] | FHA, fraction of the ACh sites that have high affinity ([3]; Y60W hVAChT, pH 7.4) | ACh bound more weakly than by wild-type ([4]; W331L hVAChT vs wild-type) [fold] | FHA, fraction of the ACh sites that have high affinity ([4]; W331L hVAChT, pH 7.4, monophasic fit, FHA fixed to 1) | Kd [5] [mM] | FHA, fraction of the ACh sites that have high affinity ([5]; C388A hVAChT, pH 7.4) | decrease in ACh affinity (equilibrium) [6] [fold] | vesamicol binding [7]
1 | CC(=O)OCC[N+](C)(C)C [ACh, acetylcholine] | no transport | 7.9 ± 0.8 | 920 ± 170 | 4.5 ± 0.1 | 2 | 0.86 ± 0.02 | 10 | 1.0 | 17 ± 4 | 0.88 ± 0.08 | ≤ 9 | 
2 | O[C@@H]1CCCC[C@H]1N1CCC(c2ccccc2)CC1 (racemic) [vesamicol, ( )-trans-2-(4-phenylpiperidino)cyclohexanol] |  |  |  |  |  |  |  |  |  |  |  | does not bind vesamicol
